Reference: patent US6352989B1, “Nitrogenous heterocyclic derivatives and medicine thereof” (Eisai Co., Ltd., priority 1998, dated 2002)
pIC50: −log10 of the molar value.

Tests used:
[1] = target: PDE4D (Homo sapiens, UniProt Q08499); assay: Inhibitory action on PDE4 (homogenate of BHK cells expressing cloned human PDE4D, [3H]-cAMP hydrolysis); type: biochemical; conditions: average in triplicate measurements; 1 μM [3H]-cAMP substrate; read-out: PDE4 Inhibition IC50
Description: Inhibitory Action on PDE4: PDE4D was cloned from human placental mRNA by PCR techniques, and cDNA after an alternative spliced site (Mol. Cell. Biol., 13, 6558, 1993) was expressed in BHK cells. Two clones of BHK cells expressing PDE4 activity which was 100 or more times as high as endogenous PDE4 activity were obtained, and one of the clones was cultured in a large amount, and its homogenate was used as an enzyme source of PDE4.
50 mM Tris-HCl (pH 8.0), 0.1 mM EGTA, 0.1 mM MgCl2, 1 μM [^3H]-cGMP (100,000 dpm/tube) or 1 μM [^3H]-cAMP (100,000 dpm/tube) was added to the above homogenate, and 0.2 ml of the mixture was incubated at 30° C. for 10 to 20 minutes in the presence or absence of a test compound. The enzyme reaction was stopped by incubating the mixture at 95° C. for 1.5 minutes, and after cooling on ice, 50 μl nucleotidase (10 units/ml) was added thereto and incubated at 30° C. for 10 minutes. 550 μl of AG1-X2 resin slurry (H2O:resin=2:1) was added to the reaction mixture, then left at 4° C. for 10 minutes and centrifuged (10,000 rpm, 2.5 minutes, 4° C.), and 450 μl of the supernatant was measured for radioactivity.
The activity was compared in terms of IC50 (concentration of the compound at which 50% of the enzyme activity is inhibited) IC50 was determined by plotting of the concentration of cAMP as the substrate and the concentration of the compound on logarithmic graph paper. The results shown in Table 1 are the average in triplicate measurements. The test compound was first dissolved in DMSO and then diluted with the above-mentioned buffer for use.

[2] = tested on: TNFα production; assay: Inhibitory action on production of TNFα (LPS-stimulated human peripheral blood monocyte fraction, ELISA); type: cell-based; conditions: LPS-stimulated human peripheral blood monocytes, incubation 18 to 24 hours, read-out: TNF^α Inhibition IC50
Description: Inhibitory Action on Production of TNF: Human peripheral blood was collected in […] and centrifuged (1000 rpm, 10 minutes, at room temperature) to remove platelet rich plasma, and then the blood sample was mixed with Hank's balanced salt solution (HBSS) (with an equal volume to the removed plasma) containing penicillin (100 units/ml) and streptomycin (100 μg/ml) (referred to hereinafter as “p, s”). Ficoll-paque (Pharmacia) with an volume of 3/5 relative to the sample mixture was layered on the lower layer and centrifuged at 1500 rpm for 30 minutes at room temperature, and the monocyte nucleus fraction was collected. The resulting monocyte nucleus fraction was washed twice with p, s-containing HBSS and prepared as a cell float at a cell density of 2-4×10^6 cells/ml in p, s-containing RPMI1640 (containing 10% FCS). 400 μl of the prepared cell float was added to a 48-wells culture plate, and 50 μl LPS (100 ng/ml of saline) and 50 μl of each of compound solutions prepared at various concentrations were added to each well, followed by incubation at 37° C. in a 5% CO2 mixed air. After incubation for 18 to 24 hours, the incubated buffer was separated, and TNFα thus released from the cells was measured by an ELISA kit (Amasham).
The inhibitory action of the compound on production of TNFα was determined in terms of IC50 by plotting the concentrations of the compound and the amount of produced TNFα (%relative to the control) on semilogarithmic graph paper. The control (100%) for the amount of TNFα produced was obtained by subtracting the amount of TNFα produced in the (basal) group where neither LPS nor the compound was added, from the amount of TNFα produced in the (control) group where the compound was not added.
After the compound was dissolved at a concentration of […] in DMSO solution containing the compound at a concentration which was 1000 times as high as the final concentration, and then the solution was diluted with RPMI1640 containing 10% FCS and p,s, to prepare a solution containing the compound at a concentration which was 10 times as high as the final concentration. In place of the compound solution, RPMI1640 (1% DMSO, 10% FCS) containing p, s was added to the control group basal group. In place of the LPS solution, physiological saline was added to the basal group.

[3] = tested on: ZDP rat; assay: Blood sugar-depressing action (ZDP rat); type: in vivo
Description: Blood Sugar-Depressing Action (ZDP rat): A test compound was suspended in 0.5% MC, and the suspension was orally administered to an animal once every day for 1 week. After the administration, the rat was allowed to fast for 4 hours, and blood was collected from the tail vein, added immediately to 0.6 M HClO4 (0.6 M HClO4=1:9), and centrifuged to give a supernatant which was then measured for glucose level by Glocose CII Test Wako Kit (Wako Pure Chemical Industries, Ltd., JP). In the table, values in the parentheses under the blood sugar level (mg/dl) indicate glucose levels relative to those (=100%) before the administration of the test compound.

Sequence of PDE4D (Q08499 303-809 limits assumed): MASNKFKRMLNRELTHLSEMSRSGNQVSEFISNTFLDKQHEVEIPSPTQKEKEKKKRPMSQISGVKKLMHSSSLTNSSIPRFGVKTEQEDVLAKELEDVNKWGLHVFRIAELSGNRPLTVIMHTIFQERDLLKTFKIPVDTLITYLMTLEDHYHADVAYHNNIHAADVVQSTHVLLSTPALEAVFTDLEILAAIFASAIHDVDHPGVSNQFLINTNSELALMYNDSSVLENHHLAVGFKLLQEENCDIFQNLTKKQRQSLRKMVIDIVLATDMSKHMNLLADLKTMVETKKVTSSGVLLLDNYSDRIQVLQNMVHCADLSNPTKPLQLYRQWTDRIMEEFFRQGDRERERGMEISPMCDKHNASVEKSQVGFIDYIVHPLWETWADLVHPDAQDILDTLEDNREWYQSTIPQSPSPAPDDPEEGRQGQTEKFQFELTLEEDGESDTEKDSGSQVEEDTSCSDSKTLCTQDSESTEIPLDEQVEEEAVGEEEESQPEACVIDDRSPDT

| SMILES | pIC50 [1] | pIC50 [2] | melting point | Blood sugar level, Before the administration ([3]; baseline before the administration of the test compound) | Blood sugar level, After the continuous administration for 1 week ([3]; oral, once every day for 1 week, 4 hours fast, tail vein blood) | Glucose level relative to that (=100%) before the administration, after the continuous administration for 1 week ([3]; oral, once every day for 1 week, value in parentheses) |
| --- | --- | --- | --- | --- | --- | --- |
| CNc1nc(-c2cccc(NC(=O)c3ccncc3)c2)c2cc(OC)c(OC)cc2n1 [Example 2, 6,7-Dimethoxy-2-methylamino-4-[3-(4-pyridinecarbonylamino)phenyl]quinazoline] | 8.07 | 8.33 | 228 to 230 °C | – | – | – |
| CNc1nc(-c2cccc(NC(=O)c3ccc(OC)c(OC)c3)c2)c2cc(OC)c(OC)cc2n1 [Example 14, 6,7-Dimethoxy-4-[3-(3,4-dimethoxybenzoylamino)phenyl]-2-methylaminoquinazoline] | 8.40 | 8.80 | 128 to 130 °C | – | – | – |
| CNc1ccc(C(=O)Nc2cccc(-c3nc(NC)nc4cc(OC)c(OC)cc34)c2)cn1 [Example 32, 6,7-Dimethoxy-2-methylamino-4-[3-(6-methylaminonicotinoylamino)phenyl]quinazoline] | 8.59 | 8.64 | 193 to 195 °C | 478.5 ± 7.3 mg/dL | 349.3 ± 44.3 mg/dL | (73.0) % |

The next compounds have a higher pIC50 [1] than those just listed; values first:

| pIC50 [1] | pIC50 [2] | melting point | SMILES | Blood sugar level, Before the administration ([3]; baseline before the administration of the test compound) | Blood sugar level, After the continuous administration for 1 week ([3]; oral, once every day for 1 week, 4 hours fast, tail vein blood) | Glucose level relative to that (=100%) before the administration, after the continuous administration for 1 week ([3]; oral, once every day for 1 week, value in parentheses) |
| --- | --- | --- | --- | --- | --- | --- |
| 8.85 | 8.48 | 130 to 132 °C | CNc1nc(-c2cccc(NC(=O)c3ccc(OC)c(Cl)c3)c2)c2cc(OC)c(OC)cc2n1 [Example 18, 4-[3-(3-Chloro-4-methoxybenzoylamino)phenyl]-6,7-dimethoxy-2-methylaminoquinazoline] | – | – | – |
| 8.96 | 8.77 | 218 to 220 °C | CNc1nc(-c2cccc(-c3cnc4ccccc4c3)c2)c2cc(OC)c(OC)cc2n1 [Example 49, 6,7-Dimethoxy-2-methylamino-4-[3-(3-quinolyl)phenyl]quinazoline] | – | – | – |
